# Assay results as given in US8329950B2, “Process for preparation of trans 4-(3,4-Dichlorophenyl)-1,2,3,4-tetrahydro-1Napthalenamine” (Sunovion Pharmaceuticals Inc., priority 2005, dated 2012).
# Where “and” joins values, the source holds several entries; their conditions need not be identical. Equal entries are not always repeated.
# Tests used:
# [1] = tested on: mice; test: Behavioral Despair Test (Porsolt swim test) in mice; assay type: in vivo; conditions: for Immobility Duration, Mean: N = 10
# [2] = target: T1, functional uptake of norepinephrine (NE) (Rattus norvegicus, UniProt Q63380); test: biochemical
# T1 construct: synaptosomes isolated at Cerep in a 0.32 M sucrose buffer from a male Wistar rat hypothalamus; tissue Cerep; host or cells: male Wistar rat hypothalamus synaptosomes
# Experimental: Characterization of norepinephrine uptake is performed using synaptosomes isolated at Cerep in a 0.32 M sucrose buffer from a male Wistar rat hypothalamus. The uptake of radiolabeled norepinephrine by synaptosomes (100 μg of proteins/point) is allowed by incubating them in a deep well for 20 minutes at 37° C. in presence of test compounds and [^3H]-norepinephrine (0.1 μCi/point).
# Synaptosomes and [^3H]-norepinephrine are prepared in a Krebs buffer pH 7.4 containing 25 mM NaHCO3, 11 mM glucose and 50 μM ascorbic acid. This incubation buffer is oxygenated during 5 minutes before incubation. Basal control is incubated for 20 minutes at 4° C. in order to avoid any uptake. Following this incubation the uptake is stopped by filtration through an “unifilter 96-wells GFB “Packard plate washed with Krebs buffer containing 25 mM NaHCO3 in order to eliminate the free [^3H]-norepinephrine. The radioactivity associated to the synaptosomes retained onto the unifilter corresponding to the uptake is then measured with a microplate scintillation counter Topcount, Packard using a scintillation liquid microscint 0, Packard.
# [3] = target: T2, functional uptake of dopamine (DA) (Rattus norvegicus, UniProt P23977); test: Dopamine functional uptake assay in rat striatum synaptosomes; assay type: biochemical; conditions: for inhibition of DA uptake: tested initially at 10 μM
# T2 construct: synaptosomes isolated at Cerep in a 0.32 M sucrose buffer from a male Wistar rat striatum; tissue Cerep; host or cells: male Wistar rat striatum synaptosomes
# Experimental: Characterization of dopamine uptake is performed using synaptosomes isolated at Cerep in a 0.32 M sucrose buffer from a male Wistar rat striatum. The uptake of radiolabelled dopamine by synaptosomes (20 μg of proteins/point) is allowed by incubating them in a deep well for 15 minutes at 37° C. in presence of test compounds and [^3H]-dopamine (0.1 μCi/point).
# Synaptosomes and [^3H]-dopamine are prepared in a Krebs buffer pH 7.4 containing 25 mM NaHCO3, 11 mM glucose and 50 μM ascorbic acid. This incubation buffer is oxygenated during 5 minutes before incubation. Basal control is incubated for 15 minutes at 4° C. in order to avoid any uptake. Following this incubation the uptake is stopped by filtration through an “unifilter 96-wells GFB “Packard plate washed with Krebs buffer containing 25 mM NaHCO3 in order to eliminate the free [^3H]-dopamine. The radioactivity associated to the synaptosomes retained onto the unifilter corresponding to the uptake is then measured with a microplate scintillation counter Topcount, Packard using a scintillation liquid microscint 0, Packard.
# [4] = tested on: women with insomnia secondary to perimenopause or menopause; test: Clinical study, number of nocturnal awakenings due to hot flashes; assay type: in vivo, human; conditions: 3 mg nightly, Intent-to-Treat; for Nocturnal Awakenings due to Hot Flashes, Change from Baseline, Least Squares Means (SE): ANCOVA; for Nocturnal Awakenings due to Hot Flashes, Observed Value, Least Squares Means (SE): ANOVA
# Experimental: (§1) The study was aimed at observing efficacy of eszopiclone 3 mg compared to placebo in the treatment of insomnia secondary to perimenopause or menopause.
# (§2) The study was a multicenter, randomized, double-blind, placebo-controlled, parallel-group study. […] The primary method of analysis compared the post-randomization results between the two treatment groups.
# (§3) Subjects were women with insomnia secondary to perimenopause or menopause. Subjects were perimenopausal or menopausal and had insomnia symptoms including ≧45 minutes sleep latency (SL) and total sleep time (TST)≦6 hours. Perimenopausal/menopausal symptoms predated the onset of sleep disturbance symptoms. The patient population was predominately Caucasian (77.2%). The mean age was 49, with a range of 40-60.
# (§4) A total of 410 subjects were randomized. Among them, 201 received 3 mg of eszopiclone (ESZ) nightly (at bedtime) for four weeks and 209 received matching placebo (PBO).
# [5] = tested on: women with insomnia secondary to perimenopause or menopause; test: Clinical study, Physician Global Assessment; assay type: in vivo, human; conditions: Visit 5 (Week 4), 3 mg nightly; for Physician Global Assessment, Observed Value, Least Squares Means (SE): ANOVA
# Experimental: as §1, §2, §3, §4
# A Physician Global Assessment was administered at Week 4, the end of the double-blind treatment period.
# [6] = target: T3, functional uptake of serotonin (5-HT) (Rattus norvegicus, UniProt P31652); test: Serotonin functional uptake assay in rat synaptosomes; assay type: biochemical; conditions: Table 6; tested initially at 10 μM
# T3 construct: synaptosomes isolated in a 0.32 M sucrose buffer from a male Wistar rat cortex; from tissue; host or cells: male Wistar rat cortex (whole brain) synaptosomes
# Experimental: Characterization of serotonin uptake is performed using synaptosomes isolated in a 0.32 M sucrose buffer from a male Wistar rat cortex. The uptake of radiolabelled serotonin by synaptosomes (100 μg of proteins/point) is allowed by incubating them in a deep well for 15 minutes at 37° C. in presence of test compounds and [3H]5-hydroxytryptamin (0.1 μCi/point).
# Synaptosomes and [^3H]5-hydroxytryptamine are prepared in a Krebs buffer pH 7.4 containing 25 mM NaHCO3, 11 mM glucose and 50 μM ascorbic acid. This incubation buffer is oxygenated during 5 minutes before incubation. Basal control is incubated for 15 minutes at 4° C. in order to avoid any uptake. Following this incubation the uptake is stopped by filtration through an “unifilter 96-wells GFB “Packard plate washed with Krebs buffer containing 25 mM NaHCO3 in order to eliminate the free [^3H]5-hydroxytryptamine. The radioactivity associated to the synaptosomes retained onto the unifilter corresponding to the uptake is then measured with a microplate scintillation counter Topcount, Packard using a scintillation liquid microscint 0, Packard.
# [7] = score 1 = Very much improved to 7 = Very much worse
# T2 sequence (P23977 whole entry): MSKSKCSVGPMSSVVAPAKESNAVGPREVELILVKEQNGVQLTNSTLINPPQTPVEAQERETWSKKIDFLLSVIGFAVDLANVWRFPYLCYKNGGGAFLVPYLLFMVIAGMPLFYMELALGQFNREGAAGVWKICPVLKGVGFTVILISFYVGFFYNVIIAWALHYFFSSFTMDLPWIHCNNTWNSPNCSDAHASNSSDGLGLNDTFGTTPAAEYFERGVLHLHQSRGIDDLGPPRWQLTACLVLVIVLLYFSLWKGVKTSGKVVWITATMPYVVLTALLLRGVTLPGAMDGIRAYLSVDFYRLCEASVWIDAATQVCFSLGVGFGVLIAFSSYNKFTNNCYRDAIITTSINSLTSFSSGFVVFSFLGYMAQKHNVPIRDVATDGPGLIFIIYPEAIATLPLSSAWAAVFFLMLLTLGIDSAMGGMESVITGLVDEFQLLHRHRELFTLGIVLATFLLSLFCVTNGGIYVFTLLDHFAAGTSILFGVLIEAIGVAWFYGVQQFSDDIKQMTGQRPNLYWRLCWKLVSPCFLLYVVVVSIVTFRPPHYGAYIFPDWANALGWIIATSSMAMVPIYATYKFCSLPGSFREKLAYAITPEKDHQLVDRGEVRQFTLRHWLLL
# T1 sequence (Q63380 1-617): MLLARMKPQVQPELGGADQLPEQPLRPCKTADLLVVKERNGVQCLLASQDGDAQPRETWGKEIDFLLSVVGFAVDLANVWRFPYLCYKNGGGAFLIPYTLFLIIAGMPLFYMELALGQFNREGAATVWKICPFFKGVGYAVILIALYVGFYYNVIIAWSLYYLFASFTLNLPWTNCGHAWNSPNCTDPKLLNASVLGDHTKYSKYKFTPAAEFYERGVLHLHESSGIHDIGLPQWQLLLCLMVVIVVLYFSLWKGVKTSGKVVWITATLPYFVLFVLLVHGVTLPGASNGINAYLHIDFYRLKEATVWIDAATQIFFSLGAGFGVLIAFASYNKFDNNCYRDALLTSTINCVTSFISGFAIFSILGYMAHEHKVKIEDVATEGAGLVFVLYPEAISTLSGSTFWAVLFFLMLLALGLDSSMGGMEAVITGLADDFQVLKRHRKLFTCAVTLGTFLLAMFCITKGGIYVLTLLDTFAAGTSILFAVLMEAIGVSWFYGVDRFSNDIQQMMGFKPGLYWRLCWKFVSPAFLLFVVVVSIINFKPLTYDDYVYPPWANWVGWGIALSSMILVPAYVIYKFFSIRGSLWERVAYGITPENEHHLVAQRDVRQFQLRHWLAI
# T3 sequence (P31652 whole entry): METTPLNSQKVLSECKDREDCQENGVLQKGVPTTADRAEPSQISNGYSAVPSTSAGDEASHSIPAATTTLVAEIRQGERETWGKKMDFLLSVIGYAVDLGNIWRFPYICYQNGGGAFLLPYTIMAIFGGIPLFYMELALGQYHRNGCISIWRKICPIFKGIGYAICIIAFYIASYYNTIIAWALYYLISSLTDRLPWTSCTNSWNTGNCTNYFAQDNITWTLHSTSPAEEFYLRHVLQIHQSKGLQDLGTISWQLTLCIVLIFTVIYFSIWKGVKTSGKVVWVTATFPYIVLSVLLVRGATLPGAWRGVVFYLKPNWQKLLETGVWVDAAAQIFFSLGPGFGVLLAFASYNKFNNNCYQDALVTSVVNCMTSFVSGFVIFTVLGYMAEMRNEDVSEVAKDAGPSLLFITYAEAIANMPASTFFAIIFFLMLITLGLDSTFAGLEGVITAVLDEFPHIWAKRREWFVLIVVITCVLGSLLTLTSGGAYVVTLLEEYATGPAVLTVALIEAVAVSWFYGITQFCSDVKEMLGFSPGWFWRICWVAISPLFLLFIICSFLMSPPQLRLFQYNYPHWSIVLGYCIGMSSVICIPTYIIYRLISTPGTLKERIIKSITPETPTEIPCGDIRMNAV
structure (smiles),measurement,setting,value
"N[C@@H]1CC[C@@H](c2ccc(Cl)c(Cl)c2)c2ccccc21 [P, (1R,4S)-trans 4-(3,4-dichlorophenyl)-1,2,3,4-tetrahydro-1-napthalenamine]","Immobility Duration, individual mice",[1]; 0.03 mg/kg intraperitoneal,129 s and 99 s and 107 s and 159 s and 102 s and 115 s and 122 s and 128 s and 120 s and 96 s
same,"Immobility Duration, Mean",[1]; 0.03 mg/kg intraperitoneal,118 s
same,"Immobility Duration, individual mice",[1]; 0.1 mg/kg intraperitoneal,100 s and 103 s and 76 s and 109 s and 56 s and 98 s and 62 s and 119 s and 96 s and 85 s
same,"Immobility Duration, Mean",[1]; 0.1 mg/kg intraperitoneal,90 s
same,"Immobility Duration, individual mice",[1]; 0.3 mg/kg intraperitoneal,93 s and 23 s and 102 s and 110 s and 106 s and 98 s and 120 s and 114 s and 109 s and 115 s
same,"Immobility Duration, Mean",[1]; 0.3 mg/kg intraperitoneal,99 s
same,"Immobility Duration, individual mice",[1]; 1 mg/kg intraperitoneal,34 sec and 51 sec (2×) and 35 sec and 19 sec and 81 sec and 50 sec and 29 sec and 66 sec and 87 sec
same,"Immobility Duration, Mean",[1]; 1 mg/kg intraperitoneal,50 s
same,"Immobility Duration, individual mice",[1]; 3 mg/kg intraperitoneal,3 sec and 17 sec and 5 sec and 0 sec (3×) and 40 sec and 26 sec and 12 sec and 49 sec
same,"Immobility Duration, Mean",[1]; 3 mg/kg intraperitoneal,15 s
"N[C@@H]1CC[C@@H](c2ccc(Cl)c(Cl)c2)c2ccccc21 (relative stereo) [P + Q, trans 4-(3,4-dichlorophenyl)-1,2,3,4-tetrahydro-1-napthalenamine]",IC50,"[2]; Table 6, rat synaptosomes",8.8 nM
same,IC50,"[3]; Table 6, rat synaptosomes",7.1 nM
"CN1CCN(C(=O)O[C@H]2c3nccnc3C(=O)N2c2ccc(Cl)cn2)CC1 [Eszopiclone, (+) 6-(5-chloropyrid-2-yl)-5-(4-methylpiperazin-1-yl)carbonyloxy-7-oxo-6,7-dihydro-5H-pyrrolo[3-4-b]pyrazine]","Nocturnal Awakenings due to Hot Flashes, Change from Baseline, 25th Percentile",[4]; DB Average,−1.1
same,"Nocturnal Awakenings due to Hot Flashes, Change from Baseline, 75th Percentile",[4]; DB Average,0.0
same,"Nocturnal Awakenings due to Hot Flashes, Change from Baseline, Maximum",[4]; DB Average,1.5
same,"Nocturnal Awakenings due to Hot Flashes, Change from Baseline, Mean (SD)",[4]; DB Average,−0.7 (1.0)
same,"Nocturnal Awakenings due to Hot Flashes, Change from Baseline, Median",[4]; DB Average,−0.5
same,"Nocturnal Awakenings due to Hot Flashes, Change from Baseline, Minimum",[4]; DB Average,−6.0
same,"Nocturnal Awakenings due to Hot Flashes, Observed Value, 25th Percentile",[4]; DB Average,0.0
same,"Nocturnal Awakenings due to Hot Flashes, Observed Value, 75th Percentile",[4]; DB Average,0.9
same,"Nocturnal Awakenings due to Hot Flashes, Observed Value, Maximum",[4]; DB Average,2.7
same,"Nocturnal Awakenings due to Hot Flashes, Observed Value, Mean (SD)",[4]; DB Average,0.5 (0.6)
same,"Nocturnal Awakenings due to Hot Flashes, Observed Value, Median",[4]; DB Average,0.2
same,"Nocturnal Awakenings due to Hot Flashes, Observed Value, Minimum",[4]; DB Average,0.0
same,"Nocturnal Awakenings due to Hot Flashes, Change from Baseline, Least Squares Means (SE)",[4]; DB Average,−0.7 (0.1)
same,"Nocturnal Awakenings due to Hot Flashes, Observed Value, Least Squares Means (SE)",[4]; DB Average,0.5 (0.1)
same,"Nocturnal Awakenings due to Hot Flashes, Change from Baseline, 25th Percentile",[4]; Week 1,−1.2
same,"Nocturnal Awakenings due to Hot Flashes, Change from Baseline, 75th Percentile",[4]; Week 1,0.0
same,"Nocturnal Awakenings due to Hot Flashes, Change from Baseline, Maximum",[4]; Week 1,0.8
same,"Nocturnal Awakenings due to Hot Flashes, Change from Baseline, Mean (SD)",[4]; Week 1,−0.7 (1.0)
same,"Nocturnal Awakenings due to Hot Flashes, Change from Baseline, Median",[4]; Week 1,−0.5
same,"Nocturnal Awakenings due to Hot Flashes, Change from Baseline, Minimum",[4]; Week 1,−6.0
same,"Nocturnal Awakenings due to Hot Flashes, Observed Value, 25th Percentile",[4]; Week 1,0.0
same,"Nocturnal Awakenings due to Hot Flashes, Observed Value, 75th Percentile",[4]; Week 1,1.0
same,"Nocturnal Awakenings due to Hot Flashes, Observed Value, Maximum",[4]; Week 1,3.0
same,"Nocturnal Awakenings due to Hot Flashes, Observed Value, Mean (SD)",[4]; Week 1,0.5 (0.7)
same,"Nocturnal Awakenings due to Hot Flashes, Observed Value, Median",[4]; Week 1,0.2
same,"Nocturnal Awakenings due to Hot Flashes, Observed Value, Minimum",[4]; Week 1,0.0
same,"Nocturnal Awakenings due to Hot Flashes, Change from Baseline, Least Squares Means (SE)",[4]; Week 1,−0.7 (0.1)
same,"Nocturnal Awakenings due to Hot Flashes, Observed Value, Least Squares Means (SE)",[4]; Week 1,0.5 (0.1)
same,"Nocturnal Awakenings due to Hot Flashes, Observed Value, Least Squares Means (SE)","[4]; Week 1, listed as ESZ",0.3
same,"Nocturnal Awakenings due to Hot Flashes, Change from Baseline, 25th Percentile",[4]; Week 2,−1.0
same,"Nocturnal Awakenings due to Hot Flashes, Change from Baseline, 75th Percentile",[4]; Week 2,0.0
same,"Nocturnal Awakenings due to Hot Flashes, Change from Baseline, Maximum",[4]; Week 2,2.0
same,"Nocturnal Awakenings due to Hot Flashes, Change from Baseline, Mean (SD)",[4]; Week 2,−0.7 (1.0)
same,"Nocturnal Awakenings due to Hot Flashes, Change from Baseline, Median",[4]; Week 2,−0.6
same,"Nocturnal Awakenings due to Hot Flashes, Change from Baseline, Minimum",[4]; Week 2,−6.0
same,"Nocturnal Awakenings due to Hot Flashes, Observed Value, 25th Percentile",[4]; Week 2,0.0
same,"Nocturnal Awakenings due to Hot Flashes, Observed Value, 75th Percentile",[4]; Week 2,1.0
same,"Nocturnal Awakenings due to Hot Flashes, Observed Value, Maximum",[4]; Week 2,3.0
same,"Nocturnal Awakenings due to Hot Flashes, Observed Value, Mean (SD)",[4]; Week 2,0.5 (0.7)
same,"Nocturnal Awakenings due to Hot Flashes, Observed Value, Median",[4]; Week 2,0.0
same,"Nocturnal Awakenings due to Hot Flashes, Observed Value, Minimum",[4]; Week 2,0.0
same,"Nocturnal Awakenings due to Hot Flashes, Change from Baseline, Least Squares Means (SE)",[4]; Week 2,−0.6 (0.1)
same,"Nocturnal Awakenings due to Hot Flashes, Observed Value, Least Squares Means (SE)",[4]; Week 2,0.5 (0.1)
same,"Nocturnal Awakenings due to Hot Flashes, Change from Baseline, 25th Percentile",[4]; Week 3,−1.0
same,"Nocturnal Awakenings due to Hot Flashes, Change from Baseline, 75th Percentile",[4]; Week 3,0.0
same,"Nocturnal Awakenings due to Hot Flashes, Change from Baseline, Maximum",[4]; Week 3,1.5
same,"Nocturnal Awakenings due to Hot Flashes, Change from Baseline, Mean (SD)",[4]; Week 3,−0.7 (1.1)
same,"Nocturnal Awakenings due to Hot Flashes, Change from Baseline, Median",[4]; Week 3,−0.4
same,"Nocturnal Awakenings due to Hot Flashes, Change from Baseline, Minimum",[4]; Week 3,−6.0
same,"Nocturnal Awakenings due to Hot Flashes, Observed Value, 25th Percentile",[4]; Week 3,0.0
same,"Nocturnal Awakenings due to Hot Flashes, Observed Value, 75th Percentile",[4]; Week 3,1.0
same,"Nocturnal Awakenings due to Hot Flashes, Observed Value, Maximum",[4]; Week 3,3.0
same,"Nocturnal Awakenings due to Hot Flashes, Observed Value, Mean (SD)",[4]; Week 3,0.5 (0.7)
same,"Nocturnal Awakenings due to Hot Flashes, Observed Value, Median",[4]; Week 3,0.0
same,"Nocturnal Awakenings due to Hot Flashes, Observed Value, Minimum",[4]; Week 3,0.0
same,"Nocturnal Awakenings due to Hot Flashes, Change from Baseline, Least Squares Means (SE)",[4]; Week 3,−0.6 (0.1)
same,"Nocturnal Awakenings due to Hot Flashes, Observed Value, Least Squares Means (SE)",[4]; Week 3,0.5 (0.1)
same,"Nocturnal Awakenings due to Hot Flashes, Change from Baseline, 25th Percentile",[4]; Week 4,−1.3
same,"Nocturnal Awakenings due to Hot Flashes, Change from Baseline, 75th Percentile",[4]; Week 4,0.0
same,"Nocturnal Awakenings due to Hot Flashes, Change from Baseline, Maximum",[4]; Week 4,2.1
same,"Nocturnal Awakenings due to Hot Flashes, Change from Baseline, Mean (SD)",[4]; Week 4,−0.8 (1.2)
same,"Nocturnal Awakenings due to Hot Flashes, Change from Baseline, Median",[4]; Week 4,−0.7
same,"Nocturnal Awakenings due to Hot Flashes, Change from Baseline, Minimum",[4]; Week 4,−6.0
same,"Nocturnal Awakenings due to Hot Flashes, Observed Value, 25th Percentile",[4]; Week 4,0.0
same,"Nocturnal Awakenings due to Hot Flashes, Observed Value, 75th Percentile",[4]; Week 4,1.0
same,"Nocturnal Awakenings due to Hot Flashes, Observed Value, Maximum",[4]; Week 4,3.6
same,"Nocturnal Awakenings due to Hot Flashes, Observed Value, Mean (SD)",[4]; Week 4,0.4 (0.7)
same,"Nocturnal Awakenings due to Hot Flashes, Observed Value, Median",[4]; Week 4,0.0
same,"Nocturnal Awakenings due to Hot Flashes, Observed Value, Minimum",[4]; Week 4,0.0
same,"Nocturnal Awakenings due to Hot Flashes, Change from Baseline, Least Squares Means (SE)",[4]; Week 4,−0.7 (0.1)
same,"Nocturnal Awakenings due to Hot Flashes, Observed Value, Least Squares Means (SE)",[4]; Week 4,0.4 (0.1)
same,"Physician Global Assessment, Change from Baseline, 25th Percentile",[5],−2.0
same,"Physician Global Assessment, Change from Baseline, 75th Percentile",[5],0.0
same,"Physician Global Assessment, Change from Baseline, Maximum",[5],6.0
same,"Physician Global Assessment, Change from Baseline, Mean (SD)",[5],−1.0 (1.4)
same,"Physician Global Assessment, Change from Baseline, Median",[5],−1.0
same,"Physician Global Assessment, Change from Baseline, Minimum",[5],−4.0
same,"Physician Global Assessment, Change from Baseline, Least Squares Means (SE)",[5]; ANCOVA,−0.9 (0.1)
same,"Physician Global Assessment, Observed Value, Least Squares Means (SE)",[5],2.7 (0.1)
same,"Physician Global Assessment, Observed Value, Least Squares Means (SE)",[5]; listed as ESZ,2.7
same,"Physician Global Assessment, Observed Value, 25th Percentile",[5]; [7],2.0
same,"Physician Global Assessment, Observed Value, 75th Percentile",[5]; [7],4.0
same,"Physician Global Assessment, Observed Value, Maximum",[5]; [7],6.0
same,"Physician Global Assessment, Observed Value, Mean (SD)",[5]; [7],2.6 (1.2)
same,"Physician Global Assessment, Observed Value, Median",[5]; [7],2.0
same,"Physician Global Assessment, Observed Value, Minimum",[5]; [7],1.0
CN(C)CCCN1c2ccccc2CCc2ccccc21 [imipramine],inhibition at 10 µM,[2]; read-out: inhibition of NE uptake,< 50%
same,inhibition of DA uptake,[3]; Table 6,— (— <50% inhibition)
same,inhibition at 10 µM,[3]; read-out: inhibition of DA uptake,< 50%
same,"Immobility Duration, individual mice",[1]; 10 mg/kg,89 s and 85 s and 73 s and 37 s and 74 s and 95 s and 5 s and 33 s
same,"Immobility Duration, Mean",[1]; 10 mg/kg,58 s
Fc1ccc(C(OCCN2CCN(CCCc3ccccc3)CC2)c2ccc(F)cc2)cc1 [GBR 12909],inhibition of NE uptake,"[2]; Table 6, tested initially at 10 μM",— (— <50% inhibition)
same,inhibition of 5-HT uptake,[6],— (— <50% inhibition)
CNCCCC1c2ccccc2C=Cc2ccccc21 [protriptyline],inhibition of DA uptake,[3]; Table 6,— (— <50% inhibition)
